Reference: ChEMBL document CHEMBL1201862, “PubChem BioAssay data set” (2004)
Activity calls are given as the source filed them.

Key:
Cytochrome P450 3A4 = Cytochrome P450 3A4 (Homo sapiens, UniProt P08684); conditions: Potency;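 also: confirmatory qHTS run detecting inhibitors and substrates of CYP3A4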
[1] = molecular target: T1, Rac GTPase-activating protein 1 (Homo sapiens, UniProt Q9H0H5); assay: blockers of MgcRacGAP-driven Rac1 GTP hydrolysis – biochemical, ADP Hunter fluorescence, primary and confirmatory, confirmation (AID 624330); type: functional
T1 sequence (Q9H0H5 whole entry): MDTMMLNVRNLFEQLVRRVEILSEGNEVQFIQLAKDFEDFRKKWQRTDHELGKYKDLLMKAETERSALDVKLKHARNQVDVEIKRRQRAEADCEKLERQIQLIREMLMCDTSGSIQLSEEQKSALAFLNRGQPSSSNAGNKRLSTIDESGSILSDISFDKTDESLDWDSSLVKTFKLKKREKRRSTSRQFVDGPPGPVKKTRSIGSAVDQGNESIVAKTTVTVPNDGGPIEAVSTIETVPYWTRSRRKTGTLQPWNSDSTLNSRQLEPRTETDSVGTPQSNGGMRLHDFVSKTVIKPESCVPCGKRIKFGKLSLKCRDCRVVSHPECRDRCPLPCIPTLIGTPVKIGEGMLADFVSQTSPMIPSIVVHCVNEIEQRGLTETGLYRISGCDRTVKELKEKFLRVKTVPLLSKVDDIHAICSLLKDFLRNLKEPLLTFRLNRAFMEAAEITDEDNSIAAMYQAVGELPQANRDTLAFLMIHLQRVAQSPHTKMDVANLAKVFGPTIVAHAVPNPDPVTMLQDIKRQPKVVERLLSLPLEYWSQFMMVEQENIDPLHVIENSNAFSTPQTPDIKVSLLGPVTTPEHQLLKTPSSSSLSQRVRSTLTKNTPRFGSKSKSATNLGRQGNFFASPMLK

[2] = fluconazole-exposed Candida albicans growth modulators – fluorescence, retest, confirmation (AID 2467); type: functional, cell-based
[3] = NIH-3T3 fibroblast cytotoxicity, dose response, cytotoxicity control, cell-based, fluorescence, Alamar Blue, secondary assay (AID 2327); type: functional;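 also: NIH-3T3 mouse fibroblasts cultured with fluconazole at 8 µg/mL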
Large T antigen = Large T antigen (Simian virus 40, UniProt P03070); type: functional, Betapolyomavirus macacae;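 also: Confirmatory-stage PubChem screen for compounds that inhibit SV40 T antigen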
Fatty acid synthase [4] = molecular target: T2, Fatty acid synthase (Homo sapiens, UniProt P49327); assay: inhibition of human FAS-TE enzyme activity – biochemical, kinetic fluorescence intensity, dose response (AID 624326); type: functional;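 also: rate of fluorescence rise from hydrolysis of a fluorogenic O-methyl fluorescein ester substrate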
Fatty acid synthase [5] = molecular target: T2, Fatty acid synthase; assay: inhibition of human FAS-TE enzyme activity – biochemical, endpoint fluorescence intensity, uHTS hits, dose response (AID 624327); type: functional;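 also: fluorescence from hydrolysis of an O-methyl fluorescein acyl ester substrate by the enzyme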
[6] = molecular target: T3, Corticotropin-releasing factor receptor 2/Corticotropin-releasing factor-binding protein (Homo sapiens, UniProt P24387+Q13324); assay: Dose Response confirmation of uHTS hits for small molecule antagonists of the CRF-binding protein and CRF-R2 receptor complex.; type: functional; conditions: read-out: IC50_Mean
T3 sequence (Q13324 whole entry): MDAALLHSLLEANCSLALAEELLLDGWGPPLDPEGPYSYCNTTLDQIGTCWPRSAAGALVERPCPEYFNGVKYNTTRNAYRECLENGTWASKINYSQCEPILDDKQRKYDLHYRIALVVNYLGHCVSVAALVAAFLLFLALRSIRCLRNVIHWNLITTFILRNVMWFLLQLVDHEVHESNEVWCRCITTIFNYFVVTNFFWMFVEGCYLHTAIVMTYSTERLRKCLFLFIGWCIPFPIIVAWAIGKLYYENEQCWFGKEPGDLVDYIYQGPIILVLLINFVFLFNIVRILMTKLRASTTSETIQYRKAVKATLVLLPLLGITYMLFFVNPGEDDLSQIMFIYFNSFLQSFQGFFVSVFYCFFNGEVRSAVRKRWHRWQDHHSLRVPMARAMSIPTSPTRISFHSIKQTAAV
T3 sequence (P24387 whole entry): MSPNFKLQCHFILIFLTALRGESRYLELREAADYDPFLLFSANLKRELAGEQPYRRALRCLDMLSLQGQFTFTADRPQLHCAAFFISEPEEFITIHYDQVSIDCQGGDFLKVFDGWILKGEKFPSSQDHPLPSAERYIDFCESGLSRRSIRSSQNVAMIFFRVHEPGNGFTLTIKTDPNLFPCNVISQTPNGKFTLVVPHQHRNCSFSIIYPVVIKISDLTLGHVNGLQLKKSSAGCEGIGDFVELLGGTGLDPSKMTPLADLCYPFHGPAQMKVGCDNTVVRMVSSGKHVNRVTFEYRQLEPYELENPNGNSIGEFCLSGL

[7] = molecular target: T3, Corticotropin-releasing factor receptor 2/Corticotropin-releasing factor-binding protein; assay: activators of CRF receptor 2 with binding protein – uHTS hits, confirmation (AID 602473); type: functional; conditions: read-out: EC50_Mean
[8] = Luminescence Cell-Based Dose Response HTS to Identify Inhibitors of 5'UTR Stem-Loop Driven Prion Protein mRNA Translation in H4 Neuroglioblastoma Cells. [Related pubchem assays: 1827 (Project Summary), 1813 (Primary HTS)]; type: functional
[9] = luciferase reporter signal suppression in cells – H4 neuroglioma cells, luminescence, dose response (AID 1990); type: functional, cell-based
[10] = alpha-synuclein stem-loop luciferase translation blockers – H4 neuroglioma cells, luminescence, confirmation (AID 1988); type: functional, cell-based
BJ [11] = assay: BJ-TERT fibroblast viability loss – cell-based, RAS-independent, luminescence, dose response (AID 1933); type: functional; conditions: Homo sapiens
BJ [12] = assay: cells; type: functional, cell-based; conditions: Homo sapiens
BJ [13] = assay: BJ-TERT-LT-ST fibroblast viability loss – cell-based, RAS-independent, luminescence, dose response (AID 1935); type: functional; conditions: Homo sapiens;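 also: BJ fibroblasts immortalized with TERT plus LT and ST oncogenes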
[14] = DRD fibroblast viability loss – cell-based, non-viral oncogenic, luminescence, dose response (AID 1934); type: functional; conditions: Homo sapiens
INS1 = assay: INS-1E survival protection against cytokine death – cell-based, luminescence, retest, dose response (AID 449756); type: functional; conditions: Rattus norvegicus;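 also: cell death triggered by IL-1 beta plus TNF-alpha plus IFN-gamma mixture; protective hits raise ATP signal compared with cytokine alone wells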
H9c2 = assay: cells; type: functional, cell-based; conditions: Rattus norvegicus, H9c2, Myocardium
[15] = molecular target: Heat shock protein HSP 90-alpha (Homo sapiens, UniProt P07900); type: functional, organism-based
Streptokinase A = molecular target: T4, Streptokinase A (Streptococcus pyogenes serotype M1, UniProt P10520); assay: viability-normalized secreted streptokinase activity reduction – plasminogen activation absorbance, OD405, dose response (AID 1914); type: functional, Streptococcus pyogenes M1 GAS;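 also: secreted streptokinase activity via plasminogen activation per viability signal from cell pellet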
T4 sequence (P10520 whole entry): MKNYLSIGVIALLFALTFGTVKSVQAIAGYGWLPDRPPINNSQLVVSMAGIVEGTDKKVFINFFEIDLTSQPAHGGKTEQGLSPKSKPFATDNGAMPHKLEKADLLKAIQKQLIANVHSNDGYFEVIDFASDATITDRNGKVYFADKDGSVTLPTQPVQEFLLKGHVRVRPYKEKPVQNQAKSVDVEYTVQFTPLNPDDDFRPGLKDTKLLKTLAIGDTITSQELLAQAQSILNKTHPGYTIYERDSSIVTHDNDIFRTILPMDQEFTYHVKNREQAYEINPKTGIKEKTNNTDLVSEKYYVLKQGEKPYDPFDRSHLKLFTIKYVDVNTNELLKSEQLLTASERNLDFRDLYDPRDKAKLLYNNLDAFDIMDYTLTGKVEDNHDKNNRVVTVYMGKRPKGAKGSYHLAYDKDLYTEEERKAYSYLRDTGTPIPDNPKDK

[16] = system: Streptococcus sp. 'group A'; assay: Streptococcus pyogenes SK(-)GAS viability under kanamycin – luminescence, BacTiterGlo, confirmation, counter-screen for streptokinase expression inhibitor project, dose response (AID 1900); type: functional, organism-based
Streptococcus = assay: GAS UMAA2166 growth inhibition – luminescence, BacTiterGlo, counter-screen for streptokinase expression inhibitor project, dose response (AID 1915); type: functional, organism-based;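 also: potency for reduction of bacterial viability or growth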
[17] = microbe, parasite or virus in culture; type: functional; conditions: Mycobacterium tuberculosis

T2 sequence (P49327 whole entry): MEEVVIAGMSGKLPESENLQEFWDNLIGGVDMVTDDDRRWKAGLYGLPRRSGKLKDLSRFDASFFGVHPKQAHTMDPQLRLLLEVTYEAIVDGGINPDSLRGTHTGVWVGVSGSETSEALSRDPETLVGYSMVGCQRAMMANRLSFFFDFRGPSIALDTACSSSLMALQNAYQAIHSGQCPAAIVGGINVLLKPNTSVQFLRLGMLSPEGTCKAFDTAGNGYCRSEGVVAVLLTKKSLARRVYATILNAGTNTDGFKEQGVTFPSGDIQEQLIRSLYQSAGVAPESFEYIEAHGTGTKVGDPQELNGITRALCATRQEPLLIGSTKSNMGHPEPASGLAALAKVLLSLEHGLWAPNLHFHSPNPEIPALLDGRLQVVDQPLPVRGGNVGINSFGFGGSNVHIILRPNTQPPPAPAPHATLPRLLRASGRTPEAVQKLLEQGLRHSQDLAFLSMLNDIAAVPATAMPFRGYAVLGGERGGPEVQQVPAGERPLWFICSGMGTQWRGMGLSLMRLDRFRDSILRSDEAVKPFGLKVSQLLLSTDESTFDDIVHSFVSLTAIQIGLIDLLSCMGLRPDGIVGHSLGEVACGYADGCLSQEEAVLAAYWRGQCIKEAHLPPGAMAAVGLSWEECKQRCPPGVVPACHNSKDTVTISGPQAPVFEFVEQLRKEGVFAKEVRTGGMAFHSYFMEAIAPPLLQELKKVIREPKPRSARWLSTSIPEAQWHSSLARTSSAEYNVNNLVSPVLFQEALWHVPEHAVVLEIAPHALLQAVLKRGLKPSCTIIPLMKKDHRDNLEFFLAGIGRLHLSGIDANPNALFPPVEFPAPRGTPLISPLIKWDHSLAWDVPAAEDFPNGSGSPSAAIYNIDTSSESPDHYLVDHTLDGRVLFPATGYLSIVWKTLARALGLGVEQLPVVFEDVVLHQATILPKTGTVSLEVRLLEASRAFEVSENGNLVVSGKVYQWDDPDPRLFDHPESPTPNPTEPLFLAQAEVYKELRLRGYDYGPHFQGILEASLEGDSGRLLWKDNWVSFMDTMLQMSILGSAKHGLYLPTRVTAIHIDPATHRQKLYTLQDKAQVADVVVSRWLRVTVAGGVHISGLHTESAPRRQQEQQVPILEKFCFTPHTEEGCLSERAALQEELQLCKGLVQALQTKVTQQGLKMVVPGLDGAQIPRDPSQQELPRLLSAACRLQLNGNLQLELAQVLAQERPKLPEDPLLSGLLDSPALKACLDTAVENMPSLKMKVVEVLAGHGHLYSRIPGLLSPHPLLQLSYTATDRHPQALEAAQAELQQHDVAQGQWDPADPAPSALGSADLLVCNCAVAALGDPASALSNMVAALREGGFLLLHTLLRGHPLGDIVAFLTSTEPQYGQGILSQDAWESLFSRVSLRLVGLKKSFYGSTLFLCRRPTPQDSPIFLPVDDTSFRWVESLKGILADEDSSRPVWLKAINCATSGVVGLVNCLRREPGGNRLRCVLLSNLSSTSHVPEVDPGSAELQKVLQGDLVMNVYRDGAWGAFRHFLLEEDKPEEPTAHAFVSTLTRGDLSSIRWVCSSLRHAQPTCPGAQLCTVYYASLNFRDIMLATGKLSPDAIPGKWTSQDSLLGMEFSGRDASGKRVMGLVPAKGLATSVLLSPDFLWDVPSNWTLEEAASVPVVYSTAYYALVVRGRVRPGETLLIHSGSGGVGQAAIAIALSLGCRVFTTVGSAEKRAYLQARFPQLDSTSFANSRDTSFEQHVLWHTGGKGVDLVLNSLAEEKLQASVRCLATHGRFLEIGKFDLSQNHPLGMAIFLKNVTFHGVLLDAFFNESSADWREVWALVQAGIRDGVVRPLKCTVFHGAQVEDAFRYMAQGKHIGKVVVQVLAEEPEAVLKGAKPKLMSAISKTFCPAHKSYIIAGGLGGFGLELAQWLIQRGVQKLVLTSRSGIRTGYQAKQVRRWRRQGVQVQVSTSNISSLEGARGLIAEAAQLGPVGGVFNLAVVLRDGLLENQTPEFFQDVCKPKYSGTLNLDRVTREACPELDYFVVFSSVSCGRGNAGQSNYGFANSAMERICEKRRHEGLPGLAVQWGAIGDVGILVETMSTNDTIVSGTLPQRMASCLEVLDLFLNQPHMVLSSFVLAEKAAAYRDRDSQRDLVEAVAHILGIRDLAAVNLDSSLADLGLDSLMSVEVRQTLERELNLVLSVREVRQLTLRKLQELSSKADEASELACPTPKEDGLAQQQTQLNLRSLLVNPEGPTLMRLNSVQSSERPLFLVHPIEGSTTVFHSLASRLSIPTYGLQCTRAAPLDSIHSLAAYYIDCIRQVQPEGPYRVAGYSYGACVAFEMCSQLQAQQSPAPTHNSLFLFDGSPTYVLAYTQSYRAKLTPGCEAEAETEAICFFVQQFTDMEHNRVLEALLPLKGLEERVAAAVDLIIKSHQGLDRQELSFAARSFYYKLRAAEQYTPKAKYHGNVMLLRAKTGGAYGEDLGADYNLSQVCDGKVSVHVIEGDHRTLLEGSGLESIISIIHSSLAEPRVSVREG
Large T antigen, sequence (P03070 whole entry): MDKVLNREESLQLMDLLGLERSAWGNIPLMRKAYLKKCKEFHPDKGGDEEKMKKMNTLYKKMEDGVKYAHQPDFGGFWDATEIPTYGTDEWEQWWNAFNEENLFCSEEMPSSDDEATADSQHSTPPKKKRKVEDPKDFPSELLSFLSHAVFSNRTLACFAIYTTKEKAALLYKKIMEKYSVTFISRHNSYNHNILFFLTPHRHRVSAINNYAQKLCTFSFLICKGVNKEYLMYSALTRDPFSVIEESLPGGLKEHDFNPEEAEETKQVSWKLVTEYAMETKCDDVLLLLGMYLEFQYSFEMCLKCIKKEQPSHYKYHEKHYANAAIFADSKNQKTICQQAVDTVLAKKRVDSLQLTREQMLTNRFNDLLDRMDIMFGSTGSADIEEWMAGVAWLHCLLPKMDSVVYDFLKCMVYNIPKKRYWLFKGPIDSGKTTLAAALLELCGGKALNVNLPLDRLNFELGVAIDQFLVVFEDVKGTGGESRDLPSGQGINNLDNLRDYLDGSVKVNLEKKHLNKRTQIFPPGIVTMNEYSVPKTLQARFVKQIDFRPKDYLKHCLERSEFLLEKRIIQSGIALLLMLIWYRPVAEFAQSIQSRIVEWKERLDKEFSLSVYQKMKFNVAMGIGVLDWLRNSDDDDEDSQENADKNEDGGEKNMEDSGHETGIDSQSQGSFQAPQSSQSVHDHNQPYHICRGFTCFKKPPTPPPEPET
Cytochrome P450 3A4, sequence (P08684 whole entry): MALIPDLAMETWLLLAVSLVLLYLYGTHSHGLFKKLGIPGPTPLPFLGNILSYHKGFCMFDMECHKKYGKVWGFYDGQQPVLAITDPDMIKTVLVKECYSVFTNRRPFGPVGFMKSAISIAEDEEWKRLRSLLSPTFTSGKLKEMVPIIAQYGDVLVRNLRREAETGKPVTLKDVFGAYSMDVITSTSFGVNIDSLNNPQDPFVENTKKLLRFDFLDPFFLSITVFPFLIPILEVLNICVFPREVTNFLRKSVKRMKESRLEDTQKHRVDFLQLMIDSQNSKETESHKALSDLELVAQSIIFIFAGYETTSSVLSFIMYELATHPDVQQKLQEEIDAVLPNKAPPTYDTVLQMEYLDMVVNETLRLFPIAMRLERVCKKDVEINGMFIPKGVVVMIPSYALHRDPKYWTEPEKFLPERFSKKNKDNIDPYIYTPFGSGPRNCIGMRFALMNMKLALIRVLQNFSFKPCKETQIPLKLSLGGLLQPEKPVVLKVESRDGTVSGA

## COc1cc(O)cc(/C=C/c2ccccc2)c1 [PINOSYLVIN METHYL ETHER]
Cytochrome P450 3A4
  AC50: 31.6 µM (inconclusive)

## CCOC(=O)c1[nH]c2ccc(C)cc2c1N
[1]
  IC50: 24.1 µM (active)
[2]
  EC50: > 38 µM (not active)
[3]
  EC50: > 160 µM (inconclusive)

## CC(=O)Oc1cc2c(c(C)c1OC(C)=O)CC=C1[C@]3(C)CC[C@]4(C)CC[C@@](C)(C(=O)O)CC4[C@]3(C)CC[C@]12C (stereo partly specified)
Cytochrome P450 3A4
  AC50: 31.6 µM (inconclusive)

## Oc1ccc(Nc2nc(NCC3CCCO3)c3ccccc3n2)cc1 (stereo unspecified)
Large T antigen
  IC50: 9.48 µM (active)

## CCCCCCCC#Cc1ccccc1/C=N/[S+]([O-])C(C)(C)C (stereo unspecified)
Cytochrome P450 3A4
  AC50: 3.16 µM (inconclusive)

## O=C(NCCCc1ccccc1)c1cccc([N+](=O)[O-])c1
Fatty acid synthase [4]
  IC50: 4.33 µM (active)
Fatty acid synthase [5]
  IC50: 5.56 µM (active)
[6]
  IC50: > 47.1 µM (inactive)
[7]
  EC50: > 53 µM (inactive)

## COc1ccc(-c2nn(-c3ccccc3)cc2/C=N/NC(=S)NC(C)C)cc1OC
[8]
  EC50: > 120 µM (not active)
[2]
  EC50: > 38 µM (not active)
[9]
  EC50: 20.2 µM (active)
[3]
  EC50: 22.9 µM (active)
[10]
  EC50: 48.4 µM (active)

## CCn1cc(/C=C/c2cc[n+](C)cc2)c2ccccc21
BJ [11]
  EC50: 23.8 µM (active)
BJ [12]
  EC50: > 150 µM (not active)
[2]
  EC50: 0.946 µM (active)
[3]
  EC50: > 150 µM (inconclusive)
BJ [13]
  EC50: > 150 µM (not active)
[14]
  EC50: > 150 µM (not active)
INS1
  AC50: 4.58 µM (active)

## COc1ccc(C2/C=C\CN(S(=O)(=O)c3cccc4cccnc34)CC(=O)N2Cc2ccc(F)cc2)cc1 (stereo unspecified)
H9c2
  IC50: > 79 µM (inactive)

## CCCn1c(-c2ccc(F)cc2)nc2c(NC(C)CN(C)C)nc(C)nc21 (stereo unspecified)
Cytochrome P450 3A4
  AC50: 20 µM (inconclusive)

## N#CSCC(=O)c1cccc2ccccc12
[15]
  AC50: 1.61 µM (active)
Large T antigen
  IC50: 20.6 µM (active)

## O=C(NCc1ccc(C(F)(F)F)cc1)C1CC(c2c(Cl)cccc2Cl)=NO1 (stereo unspecified)
Fatty acid synthase [4]
  IC50: 9.63 µM (active)
Fatty acid synthase [5]
  IC50: 10.3 µM (active)

## CCN(CC)C(=O)c1ccc2c3c(cccc13)C(=O)N(CCc1ccc(OC)c(OC)c1)C2=O
H9c2
  IC50: > 79 µM (inactive)

## O=C(Nc1ccc(C(F)(F)F)cc1)c1cccc(-n2cnnn2)c1
Fatty acid synthase [4]
  IC50: 5.97 µM (active)
Fatty acid synthase [5]
  IC50: 11.1 µM (active)

## Clc1nccc2c1ccc1ccccc12
Cytochrome P450 3A4
  AC50: 12.6 µM (inconclusive)

## O=C(Cn1cc([N+](=O)[O-])cn1)N1CCc2ccccc2C1
Fatty acid synthase [4]
  IC50: 7.62 µM (active)
Fatty acid synthase [5]
  IC50: 11.1 µM (active)

## Cc1ccc(/C=N/NC(=O)C2=NNC(c3ccccc3)(c3ccccc3)C2)c(O)c1
Streptokinase A
  EC50: > 150 µM (not active)
[16]
  EC50: 2.9 µM (active)
[2]
  EC50: 2.3 µM (active)
[3]
  EC50: 8.56 µM (active)
Streptococcus
  EC50: > 150 µM (not active)

## CCN1C[C@@]2(COC)C3[C@@H](OC)C4[C@@H]1[C@@]3(C1C[C@@]3(O)[C@H](OC(=O)c5ccccc5)C1[C@]4(OC(C)=O)[C@@H](O)[C@@H]3OC)[C@@H](OC)C[C@H]2O (stereo partly specified)
Cytochrome P450 3A4
  AC50: 31.6 µM (inconclusive)

## O=S(=O)(Nc1ccc2c(c1)OCCO2)c1ccc2oc3ccccc3c2c1
Fatty acid synthase [4]
  IC50: 7.42 µM (active)
Fatty acid synthase [5]
  IC50: 8 µM (active)

## O=C(C1CC1)N1CCN(c2ccc(O)cc2)CC1
Large T antigen
  IC50: 11.5 µM (active)

## COc1cc(O)c(C(=O)/C=C/c2ccccc2)c(OC)c1 [FLAVOKAWAIN B]
Cytochrome P450 3A4
  AC50: 15.8 µM (inconclusive)

## Cc1nc(OCc2ccccc2)c2ccccc2n1
H9c2
  IC50: > 79 µM (inactive)

## COc1ccc(OC)c(C(=O)COC(=O)c2ccc([N+](=O)[O-])o2)c1
H9c2
  IC50: > 79 µM (inactive)

## NC(=O)c1c(NC(=O)Cn2nc(C(=O)O)c3ccccc3c2=O)sc2c1CCC2
H9c2
  IC50: > 79 µM (inactive)

## Oc1nc(CN2CCCC2)nc2sc3c(c12)CCC3
H9c2
  IC50: > 79 µM (inactive)

## O=C(COC(=O)c1cc([N+](=O)[O-])ccc1N1CCOCC1)Nc1ccccc1OC(F)F
Fatty acid synthase [4]
  IC50: 5.1 µM (active)
Fatty acid synthase [5]
  IC50: 4.73 µM (active)

## CCOC(=O)c1cc2c(=O)n3ccccc3nc2n(Cc2ccco2)/c1=N/C(=O)c1cccnc1
H9c2
  IC50: 24.3 µM (active)

## COc1ccc(OCC(=O)Nc2c(C(=O)N(CCN(C)C)Cc3ccco3)oc3ccccc23)cc1
[17]
  CC50: > 40 µM (active)
[2]
  EC50: > 38 µM (not active)
[3]
  EC50: > 160 µM (inactive)

## O=C(NCCC(=O)N(CCc1ccccc1)Cc1ccccc1)c1ccc([N+](=O)[O-])cc1
Fatty acid synthase [4]
  IC50: 8.92 µM (active)
Fatty acid synthase [5]
  IC50: 8.21 µM (active)

## CCc1cc(C(=O)N/N=C/c2ccc(O)cc2)c2ccccc2n1
Large T antigen
  IC50: > 100 µM (active)

## COc1ccc(Cl)cc1NC(=O)CN(C)C(=O)Cn1[nH]c(=O)c2ccccc2c1=O
H9c2
  IC50: 20.7 µM (active)

## CCOc1cc(/C=N/Nc2nc(C)cc(O)n2)ccc1O
Large T antigen
  IC50: 24.9 µM (active)

## COc1ccc(NC(=O)C(OC(=O)c2ccc([N+](=O)[O-])o2)c2ccccc2)cc1Cl (stereo unspecified)
H9c2
  IC50: > 79 µM (inactive)
